Experimental data as given in patent US20140323478A1, “SERINE/THREONINE KINASE INHIBITORS” (Afraxis Holdings, Inc., priority 2013, published 2014).

biological target: T1, human recombinant PAK1-KD protein (Homo sapiens, UniProt Q13153); test: PAK1-KD (kinase domain) IC50 Zlyte assay; format: biochemical; settings: Z'-LYTE FRET peptide substrate (Ser/Thr19), 60-minute incubation at 22° C.
T1 construct: made in house; host or cells: Tini [sic] cells infected with recombinant baculovirus
Description: Determination of the activity of PAK activity of a compound of formula I was accomplished using the PAK1 inhibition assay in Biological Example 1.
PAK1-KD (Kinase Domain) IC50 Zlyte Assay Protocol
Activity of human recombinant PAK1-KD protein may be assessed in vitro by assay of the phosphorylation of a FRET peptide substrate. Catalytically active human recombinant PAK1-KD protein is obtained by purification from Tini cells infected with a human PAK1-KD recombinant baculovirus expression vector.
The activity/inhibition of PAK1-KD was estimated by measuring the phosphorylation of a FRET peptide substrate (Ser/Thr19) labeled with Coumarin and Fluorescein using Z′-LYTE™ assay (Invitrogen). The peptide substrate is a consensus sequence (KKRNRRLSVA) based on various PAK substrates reported in the scientific literature. The 10 μL assay mixtures contained 50 mM HEPES (pH 7.5), 0.01% Brij-35, 10 mM MgCl2, 1 mM EGTA, 2 μM FRET peptide substrate, and 20 pM PAK1-KD. Incubations were carried out at 22° C. in black polypropylene 384-well plates (Corning Costar). […] Following the 60-minute incubation, the assay mixtures were quenched by the addition of 5 μL of Z′-LYTE™ development reagent, and 1 hour later the emissions of coumarin (445 nm) and fluorescein (520 nm) were determined after excitation at 400 nm using an Envision plate reader (Perkin Elmer). An emission ratio (445 nm/520 nm) was determined to quantify the degree of substrate phosphorylation.

T1 sequence (Q13153 270-521 limits assumed): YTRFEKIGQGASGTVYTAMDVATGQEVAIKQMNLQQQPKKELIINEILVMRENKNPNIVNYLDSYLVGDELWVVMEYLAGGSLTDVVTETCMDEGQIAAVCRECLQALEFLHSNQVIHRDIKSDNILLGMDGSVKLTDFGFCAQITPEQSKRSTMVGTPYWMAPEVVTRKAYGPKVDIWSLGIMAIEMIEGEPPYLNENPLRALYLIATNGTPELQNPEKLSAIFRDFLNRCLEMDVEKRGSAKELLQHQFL

| IC50 [µM] | Compound |
| --- | --- |
| > 4.5 | CCn1c(=O)c(-c2ccccc2S(C)(=O)=O)cc2cnc(NCCC3CCN(C)CC3)nc21 [Compound I-1, 8-Ethyl-2-((2-(1-methylpiperidin-4-yl)ethyl)amino)-6-(2-(methylsulfonyl)phenyl)pyrido[2,3-d]pyrimidin-7(8H)-one] |
| 1.4 | CCn1c(=O)c(-c2cccc(S(C)(=O)=O)c2)cc2cnc(NCCC3CCN(C)CC3)nc21 [Compound I-4, 8-ethyl-2-[2-(1-methyl-4-piperidyl)ethylamino]-6-(3-methylsulfonylphenyl)pyrido[2,3-d]pyrimidin-7-one] |
| > 4.5 | CCN1CCC(CCNc2ncc3cc(-c4ccc(S(C)(=O)=O)cc4)c(=O)n(CC)c3n2)CC1 [Compound I-6, 8-ethyl-2-[2-(1-ethyl-4-piperidyl)ethylamino]-6-(4-methylsulfonylphenyl)pyrido[2,3-d]pyrimidin-7-one] |
| > 4.5 | CCn1c(=O)c(-c2ccc([S+](C)[O-])cc2)cc2cnc(NCCC3CCN(C)CC3)nc21 (centres unmarked) [Compound I-8, 8-ethyl-2-[2-(1-methyl-4-piperidyl)ethylamino]-6-(4-methylsulfinylphenyl)pyrido[2,3-d]pyrimidin-7-one] |
| 3.5 | CCn1c(=O)c(-c2ccc(S(C)(=O)=O)nc2)cc2cnc(NCCC3CCN(C)CC3)nc21 [Compound I-11, 8-ethyl-2-[2-(1-methyl-4-piperidyl)ethylamino]-6-(6-methylsulfonyl-3-pyridyl)pyrido[2,3-d]pyrimidin-7-one] |
| 0.0683 | CCn1c(=O)c(-c2ccc(S(=O)(=O)C3CC3)cc2Cl)cc2cnc(NCCC3CCN(C)CC3)nc21 [Compound I-13, 6-(2-chloro-4-cyclopropylsulfonyl-phenyl)-8-ethyl-2-[2-(1-methyl-4-piperidyl)ethylamino]pyrido[2,3-d]pyrimidin-7-one] |

More lines, now with the values behind:

| Compound | IC50 [µM] |
| --- | --- |
| CCN1CCC(CCNc2ncc3cc(-c4cccc(S(C)(=O)=O)c4)c(=O)n(CC)c3n2)CC1 [Compound I-2, 8-ethyl-2-[2-(1-ethyl-4-piperidyl)ethylamino]-6-(3-methylsulfonylphenyl)pyrido[2,3-d]pyrimidin-7-one] | 1.7 |
| CCNc1ncc2cc(-c3cccc(S(C)(=O)=O)c3)c(=O)n(CC)c2n1 [Compound I-3, 8-Ethyl-2-(ethylamino)-6-(3-methylsulfonylphenyl)pyrido[2,3-d]pyrimidin-7-one] | > 4.5 |
| CCN1CCC(CCNc2ncc3cc(-c4ccccc4S(C)(=O)=O)c(=O)n(CC)c3n2)CC1 [Compound I-5, 8-ethyl-2-[2-(1-ethyl-4-piperidyl)ethylamino]-6-(2-methylsulfonylphenyl)pyrido[2,3-d]pyrimidin-7-one] | > 4.5 |
| CCn1c(=O)c(-c2ccc(S(C)(=O)=O)cc2)cc2cnc(NCCC3CCN(C)CC3)nc21 [Compound I-7, 8-ethyl-2-[2-(1-methyl-4-piperidyl)ethylamino]-6-(4-methylsulfonylphenyl)pyrido[2,3-d]pyrimidin-7-one] | > 4.5 |
| CCn1c(=O)c(-c2ccc(S(=O)(=O)C3CC3)cc2)cc2cnc(NCCC3CCN(C)CC3)nc21 [Compound I-9, 6-(4-cyclopropylsulfonylphenyl)-8-ethyl-2-[2-(1-methyl-4-piperidyl)ethylamino]pyrido[2,3-d]pyrimidin-7-one] | 3 |
| CCn1c(=O)c(-c2ccc(S(C)(=O)=O)cc2)cc2cnc(N[C@H]3[C@@H]4CNC[C@@H]43)nc21 [Compound I-10, 2-[[(1R,5S)-3-azabicyclo[3.1.0]hexan-6-yl]amino]-8-ethyl-6-(4-methylsulfonylphenyl)pyrido[2,3-d]pyrimidin-7-one] | > 4.5 |
| CCn1c(=O)c(-c2ccc([S+]([O-])C3CC3)cc2)cc2cnc(NCCC3CCN(C)CC3)nc21 (centres unmarked) [Compound I-12, 6-(4-cyclopropylsulfinylphenyl)-8-ethyl-2-[2-(1-methyl-4-piperidyl)ethylamino]pyrido[2,3-d]pyrimidin-7-one] | 0.874 |
| CCNc1ncc2cc(-c3ccc(S(C)(=O)=O)cc3Cl)c(=O)n(C[C@H]3CC[C@H](N)CC3)c2n1 [Compound I-14, 8-(((1R,4R)-4-aminocyclohexyl)methyl)-6-(2-chloro-4-(methylsulfonyl)phenyl)-2-(ethylamino)pyrido[2,3-d]pyrimidin-7(8H)-one] | 0.175 |
